Experiment [1] has as its system NIH 3T3 cells. The experiment can be described thus: Cell spreading on coated tissue culture dishes (time-lapse microscopy). The format is cell-based. As to conditions: surface coated with 1 μg/cm2; observed over 8 hours (3, 6, 8 hours post-plating). The procedure:
(§1) Cell Culture. NIH 3T3 cells were cultured in DMEM supplemented with 10% calf serum, 1% sodium pyruvate, 1% L-glutamine, 1% penicillin/streptomycin, and maintained in a humidified 5% CO2/95% air incubator at 37° C. Wildtype and pik3R2^−/− MEF cell lines were maintained in DMEM supplemented with 15% FBS and 1% penicillin/streptomycin, and maintained in a humidified 5% CO2, 95% air incubator at 37° C.
(§2) Imaging. NIH 3T3 cells were maintained in complete media (described above) for all experiments. Imaging was done on a Nikon Diaphot 300 inverted microscope with a Hamamatsu Orca ER digital camera controlled by IP lab software (Scanalytics). Images were captured under 10× and 20× phase-contrast microscopy. The cells were under temperature and gas control throughout the duration of the experiments (5% CO2, 95% air, 37° C.). MEF cells were maintained in complete media for all experiments. Imaging was done on a Nikon Diaphot 300 inverted microscope with a Hamamatsu Orca ER digital camera controlled by IP lab, or Metamorph imaging software. Images were captured under 20× and 40× differential interference microscopy (DIC), or fluorescence microscopy. The cells were under temperature and gas control throughout the duration of live cell imaging experiments (5% CO2, 95% air, 37° C.). […]

The subject of experiment [2] is NIH 3T3 cells. The experiment can be described thus: Cell migration onto coated half of tissue culture dish. As to conditions: right half of dish coated with 1 μg/cm^2 of each protein; cells seeded on uncoated half, 7 days. The format is cell-based. The procedure: as §1, §2

This note sets out measurements from US20080031912A1, “METHOD FOR CONTROLLING CELL MIGRATION ON A SURFACE” (THE REGENTS OF THE UNIVERSITY OF CALIFORNIA, priority 2006, published 2008).

For the substance fibronectin [FN], the “cell spreading on coated surface” value in the experiment on NIH 3T3 cells [1] is listed as “spread efficiently”. The “cell migration onto coated surface” value with NIH 3T3 cells [2] is reported as “robust migration”.
